Source: US20230390366A1, “PARAPHARMACEUTICAL OR PHARMACEUTICAL COMPOSITION ADMINISTRABLE TO A LIVING BEING, PREFERABLY A HUMAN BEING, COMPRISING AT LEAST ONE ENZYME FOR THE TREATMENT AND/OR PREVENTION OF BACTERIAL INFECTIONS INVOLVING BIOFILM FORMATION” (priority 2020, published 2023)

Tests used:
Type in all cases: cell-based
[1] = test system: S. aureus ATCC33591 biofilm; test: Curative enzyme treatment followed by 24 hours vancomycin, biofilm in 96-well plates, viability (resazurin) and biomass (crystal violet); details: vancomycin 10 mg and 20 mg/L, absence of enzyme treatment
Procedure: For the tests described below, vancomycin was used as the antibiotic molecule. The antibiotic was added at different concentrations in TGN for 24 hours at 37° C. on the biofilms pretreated with the enzyme composition according to the invention (see the below sections). The biofilm was then washed before carrying out the biomass and viability measurements.
In this model, cell viability was measured indirectly, by measuring the metabolism of cells in the biofilm. Indeed, viability was quantified by tracking changes in the colour of resazurin (7-Hydroxy-3H-phenoxazin-3-one 10 oxide) (prestoBlue, ThermoFisher). […] The quantification of resorufin was carried out by measuring fluorescence. […]
The experimental method for cultivating the strains and forming the biofilm is described in point 1.1 of this document. […] The biofilms were then washed 2× with PBS (200 μl) before biomass and viability were analysed. Biomass was quantified via the CV staining technique following the procedure described in point 1.1. […] The plate containing all the samples was then incubated for 24 hours at 37° C. in the spectraMax M3 plate reader. Fluorescence was measured every 10 minutes for 18 hours (excitation 560 nm, emission 590 nm). […]

S. aureus biofilm [2] = test: Curative enzyme treatment followed by 24 hours vancomycin, biofilm on titanium coupons, viability by CFU counting; details: vancomycin 20 mg/L
Excerpt: (§1) Two different biofilm models were used: static biofilm in 96-well plate (as described previously) and biofilm on titanium coupons. Titanium was chosen because it is a material widely used in the manufacture of implants (e.g. orthopaedic prostheses, dental implants, heart valves, pacemakers, etc.). The techniques used to measure viability differ between the two models and are detailed below.
(§2) In this model, viability was quantified after detachment and homogenisation of the biofilm via the technique of spreading and counting cells on a TSA culture media (VWR).
(§3) Titanium coupons (n=3 for each condition) were placed in the wells of a 12-well plate and incubated at 37° C. with agitation (50 rpm) for 24 hours in 3 ml of bacterial inoculum at an OD of 0.005 (10^6 CFU/ml) in order to allow biofilm to form. The coupons were then washed 2× with PBS (2 ml) and treated for 1 hour at 37° C. with the composition according to the invention or the solution without enzymes (CT−=20 mM TrisHCl pH7). The coupons were then washed twice with PBS (2 ml) and reincubated in 750 μl of TGN containing 0 or 20 mg/L of vancomycin for 24 hours at 37° C. with agitation (50 rpm). After two washes with PBS (2 ml), the biofilm was detached and homogenised in 2 ml of PBS. Different dilutions were carried out (from 10 to 10) and 10 μl of each dilution was spread on a TSA dish. Colonies (CFU) were counted after 18 hours of incubation at 37° C.
(§4) To analyse the effect of the compositions according to the invention, a statistical test (one-way ANOVA and Tukey's post-hoc test) was carried out. This test compares the fluorescence (viability) or absorbance (biomass) values of the CT− negative control (=treatment with buffer without enzymes) and of the biofilms treated with the enzyme compositions, at each vancomycin concentration. The difference is significant when the pvalue of the statistical test is less than or equal to 0.05 (* used on graphs). When this is specified in the comparative examples, the activity of the various enzyme compositions is compared (one-way ANOVA and post-hoc Tukey test).

[3] = test system: S. epidermidis ATCC35984 biofilm; test: as above; details: vancomycin 20 mg/L, absence of enzyme treatment (CT−, TGN)
Excerpt: as §1, §2, §3, §4

S. aureus biofilm [4] = test: Curative enzyme treatment (1 hour, 37° C.) of preformed 24-hour biofilm in 96-well plates, residual biomass by crystal violet staining (A570); details: S. aureus ATCC33591 and 7832; 100 U/ml in TGN; vs CT−; 1 biofilm/3 of the panel significantly reduced
Procedure: The effect of a treatment with the composition according to the invention on the biomass of biofilms was studied in a static model in 96-well plates. The curative enzyme treatment was carried out on a preformed 24-hour biofilm. To test its efficacy in reducing the biomass of biofilms, the composition according to the invention was brought into contact with the biofilm for 1 hour at 37° C. The enzyme solution was then removed, and the detached biomass was removed via rinsing steps. Crystal violet (CV) dye was then used to quantify residual biomass. […] CV staining was quantified via spectrophotometry by measuring the absorbance at 570 nm.
The different strains of S. aureus and P. aeruginosa (Table 1) were inoculated in 5 ml of TGN culture medium (Tryptic Soy Broth VWR+1% glucose+2% NaCl) from 20 μl of a stored glycerol stock at −80° C. […] The plates were then emptied, the biofilm was washed 2× with 200 μl PBS pH 7.5 (Sigma) and dried at 60° C. for 18 h before the biomass was analysed.
To quantify the residual biomass, a 1% CV solution (Sigma) was added to the biofilms at room temperature for 15 min. […] The dye attached to the biofilm was then detached and dissolved with 66% […] and absorbance at 570 nm (A570) was measured in a SpectraMax M3 multimode reader. This absorbance value corresponds to the biomass of the biofilm. […]

[5] = test system: S. epidermidis ATCC35984 biofilm; test: as above; details: 100 U/ml in TGN, vs CT−, 1 biofilm/3 of the panel significantly reduced
MG63 osteoblasts = test system: MG63 osteoblasts
Procedure: Cytotoxicity tests were performed on MG63 osteoblasts and other cell types.

[6] = test system: biofilms comprising Candida albicans; test: Enzyme treatment of biofilms comprising Candida albicans followed by antifungal/antibiotic; details: Candida albicans alone or with S. aureus and/or E. coli; enzymes 30 minutes or 1 hour, then Caspofungin (and Moxifloxacin or Meropenem) 24 hours
Excerpt: The inventors then attempted to treat biofilms comprising Candida albicans, either in monoculture or in complex biofilm models comprising Candida albicans and prokaryotes. Different strains of Candida albicans were used: the ATCC24433 strain, as well as strains isolated from orthopaedic prosthesis infections. Subtilisin (protease from Bacillus licheniformis) and lyticase (from Arthrobacter luteus or Bacillus subtilis) were obtained at Sigma. The other enzymes are those used above.
The antifungal drug Caspofungin (Merck Sharp & Dohme) and, for complex biofilms additionally comprising one or more prokaryotes, the antibiotics Moxifloxacin HCl (Bayer) or Meropenem (Mylan) were used (24 hours of treatment, after the application of enzymes).

For CN[C@H](CC(C)C)C(=O)N[C@H]1C(=O)N[C@@H](CC(N)=O)C(=O)N[C@H]2C(=O)N[C@H]3C(=O)N[C@H](C(=O)N[C@H](C(=O)O)c4cc(O)cc(O)c4-c4cc3ccc4O)[C@H](O)c3ccc(c(Cl)c3)Oc3cc2cc(c3O[C@@H]2O[C@H](CO)[C@@H](O)[C@H](O)[C@H]2O[C@H]2C[C@](C)(N)[C@H](O)[C@H](C)O2)Oc2ccc(cc2Cl)[C@H]1O [vancomycin], the “effect on viability of the biofilm (in words)” value ([1]; 20 mM TrisHCl pH7) was “only very slightly reduces”, the “effect on viability of the biofilm (in words)” value ([1]; TGN) was “does not reduce” and the “effect on viability in biofilm (in words)” value (S. aureus biofilm [2]; S. aureus ATCC33591, titanium coupons, absence of enzyme treatment (CT−, Tris-HCl)) was “does not decrease viability in biofilm”. The “effect on viability in biofilm (in words)” value (S. aureus biofilm [2]; S. aureus ATCC33591 and 144-20, absence of enzyme treatment (CT−, TGN)) was “does not significantly reduce viability in biofilm” and the “effect on viability in biofilm (in words)” value [3] was “does not significantly reduce viability in biofilm”.

B1: CE1: RNase I (Escherichia coli endoribonuclease, class EC4.6.1) 100 U/ml in TGN (protein, UniProt P21338 24-268, looked up)
Ribonuclease I: LALQAKQYGDFDRYVLALSWQTGFCQSQHDRNRNERDECRLQTETTNKADFLTVHGLWPGLPKSVAARGVDERRWMRFGCATRPIPNLPEARASRMCSSPETGLSLETAAKLSEVMPGAGGRSCLERYEYAKHGACFGFDPDAYFGTMVRLNQEIKESEAGKFLADNYGKTVSRRDFDAAFAKSWGKENVKAVKLTCQGNPAYLTEIQISIKADAINAPLSANSFLPQPHPGNCGKTFVIDKAGY
For B1, the “effect on the decrease in the biomass percentage of the biofilms (in words)” value (S. aureus biofilm [4]) was “little or no significant effect” and the “effect on the decrease in the biomass percentage of the biofilms (in words)” value [5] was “little or no significant effect”.

B2: subtilisin: protease from Bacillus licheniformis (Sigma) (protein, UniProt P00780 106-379, looked up)
Subtilisin Carlsberg: AQTVPYGIPLIKADKVQAQGFKGANVKVAVLDTGIQASHPDLNVVGGASFVAGEAYNTDGNGHGTHVAGTVAALDNTTGVLGVAPSVSLYAVKVLNSSGSGSYSGIVSGIEWATTNGMDVINMSLGGASGSTAMKQAVDNAYAKGVVVVAAAGNSGSSGNTNTIGYPAKYDSVIAVGAVDSNSNRASFSSVGAELEVMAPGAGVYSTYPTNTYATLNGTSMASPHVAGAAALILSKHPNLSASQVRNRLSSTATYLGSSFYYGKGLINVEAAAQ
In the case of B2, the “concentration at which already toxic to osteoblasts” value (MG63 osteoblasts) is reported as “about 0.5 U/mL” and the “effect on biofilms comprising Candida albicans (in words)” value [6] is reported as “sensitised biofilms”.
